Values of other authors in PMC7904743, “WIDOCK: a reactive docking protocol for virtual screening of covalent inhibitors” (Journal of Computer-Aided Molecular Design, 2021).
Like-named read-outs stand apart in the source and are kept apart here.

Columns and labels:
NUDT7 = conditions: protein labeling at 200 μM; experimental actives if % labeling higher than 50%; cited from earlier work
[1] = thiol reactivity, cited from earlier work
OTUB2 = conditions: experimental actives if % labeling higher than 50%, cited from earlier work
[2] = natural log of average rate constant k
[3] = natural logarithm of average rate constant
[4] = natural log of average rate constant
[5] = natural log of average kinetic rate constant

## O=C(CCl)Nc1ccc(N2CCCC2)cc1 [PCM-0102670, O=C(CCl)Nc1ccc(N2CCCC2)cc1]
NUDT7
  NUDT7 % labeling: 0%
[1]; [2]
  ln(avg k): -13.297
[1]; [3]
  ln(avg k): -13.297
OTUB2
  OTUB2 % labeling: 48%

## O=C(CCl)NCc1ccco1 [PCM-0102671, O=C(CCl)NCc1ccco1]
NUDT7
  NUDT7 % labeling: 0%
[1]; [2]
  ln(avg k): -16.464
[1]; [3]
  ln(avg k): -16.464
OTUB2
  OTUB2 % labeling: 35%

## CN(Cc1ccco1)C(=O)CCl [PCM-0102672, CN(Cc1ccco1)C(=O)CCl]
NUDT7
  NUDT7 % labeling: 10%
[1]; [2]
  ln(avg k): -15.763
[1]; [3]
  ln(avg k): -15.763
OTUB2
  OTUB2 % labeling: 0%

## O=C(CCl)N1CCCC(C(F)(F)F)C1 (centres unmarked) [PCM-0102676, O=C(CCl)N1CCCC(C(F)(F)F)C1]
NUDT7
  NUDT7 % labeling: 14%
[1]; [2]
  ln(avg k): -15.616
[1]; [3]
  ln(avg k): -15.616
OTUB2
  OTUB2 % labeling: 0%

## CN(Cc1cc(Cl)cc(Cl)c1)C(=O)CCl [PCM-0102678, CN(Cc1cc(Cl)cc(Cl)c1)C(=O)CCl]
NUDT7
  NUDT7 % labeling: 45%
[1]; [2]
  ln(avg k): -15.789
[1]; [3]
  ln(avg k): -15.789
OTUB2
  OTUB2 % labeling: 0%

## O=C(CCl)N1CCCC1c1ccsc1 (centres unmarked) [PCM-0102693, O=C(CCl)N1CCCC1c1ccsc1]
NUDT7
  NUDT7 % labeling: 20%
[1]; [2]
  ln(avg k): -15.634
[1]; [3]
  ln(avg k): -15.634
OTUB2
  OTUB2 % labeling: 0%

## O=C(CCl)Nc1cccc(C(=O)O)c1 [PCM-0102696, O=C(CCl)Nc1cccc(C(=O)O)c1]
NUDT7
  NUDT7 % labeling: 0%
[1]; [2]
  ln(avg k): -16.586
[1]; [3]
  ln(avg k): -16.586
OTUB2
  OTUB2 % labeling: 11%

## CC1CC(=O)Nc2ccccc2N1C(=O)CCl (centres unmarked) [PCM-0102697, CC1CC(=O)Nc2ccccc2N1C(=O)CCl]
NUDT7
  NUDT7 % labeling: 22%
[1]; [2]
  ln(avg k): -15.686
[1]; [3]
  ln(avg k): -15.686
OTUB2
  OTUB2 % labeling: 0%

## O=C(CCl)Nc1nc2ccccc2s1 [PCM-0102698, O=C(CCl)Nc1nc2ccccc2s1]
NUDT7
  NUDT7 % labeling: 83%
[1]; [2]
  ln(avg k): -15.845
[1]; [3]
  ln(avg k): -15.845
OTUB2
  OTUB2 % labeling: 7%

## Cc1cc(NC(=O)CCl)n(-c2ccccc2C)n1 [PCM-0102699, Cc1cc(NC(=O)CCl)n(-c2ccccc2C)n1]
NUDT7
  NUDT7 % labeling: 0%
[1]; [2]
  ln(avg k): -15.949
[1]; [3]
  ln(avg k): -15.949
OTUB2
  OTUB2 % labeling: 0%

## N#Cc1ccc(Cl)cc1NC(=O)CCl [PCM-0102700, N#Cc1ccc(Cl)cc1NC(=O)CCl]
NUDT7
  NUDT7 % labeling: 40%
[1]; [2]
  ln(avg k): -16.148
[1]; [3]
  ln(avg k): -16.148
OTUB2
  OTUB2 % labeling: 17%

## CCCNC(=O)NC(=O)CCl [PCM-0102702, CCCNC(=O)NC(=O)CCl]
NUDT7
  NUDT7 % labeling: 0%
[1]; [2]
  ln(avg k): -16.357
[1]; [3]
  ln(avg k): -16.357
OTUB2
  OTUB2 % labeling: 22%

## CN(C(=O)CCl)C1CCCc2ccccc21 (centres unmarked) [PCM-0102703, CN(C(=O)CCl)C1CCCc2ccccc21]
NUDT7
  NUDT7 % labeling: 30%
[1]; [4]
  ln(avg k): -15.771
[1]; [3]
  ln(avg k): -15.771
OTUB2
  OTUB2 % labeling: 0%

## O=C(CCl)N1CCN(S(=O)(=O)c2ccc(Cl)cc2)CC1 [PCM-0102704, O=C(CCl)N1CCN(S(=O)(=O)c2ccc(Cl)cc2)CC1]
NUDT7
  NUDT7 % labeling: 25%
[1]; [4]
  ln(avg k): -15.137
[1]; [3]
  ln(avg k): -15.137
OTUB2
  OTUB2 % labeling: 0%

## O=C(CCl)NCC12CC3CC(CC(C3)C1)C2 [PCM-0102706, O=C(CCl)NCC12CC3CC(CC(C3)C1)C2]
NUDT7
  NUDT7 % labeling: 0%
[1]; [4]
  ln(avg k): -16.508
[1]; [3]
  ln(avg k): -16.508
OTUB2
  OTUB2 % labeling: 65%

## Cc1ccccc1CN(C)C(=O)CCl [PCM-0102707, Cc1ccccc1CN(C)C(=O)CCl]
NUDT7
  NUDT7 % labeling: 13%
[1]; [4]
  ln(avg k): -15.717
[1]; [3]
  ln(avg k): -15.717
OTUB2
  OTUB2 % labeling: 0%

## C=CCNC(=O)NC(=O)CCl [PCM-0102709, C=CCNC(=O)NC(=O)CCl]
NUDT7
  NUDT7 % labeling: 0%
[1]; [4]
  ln(avg k): -16.210
[1]; [3]
  ln(avg k): -16.210
OTUB2
  OTUB2 % labeling: 0%

## CC(c1ccccc1)N1CCN(C(=O)CCl)CC1 (centres unmarked) [PCM-0102710, CC(c1ccccc1)N1CCN(C(=O)CCl)CC1]
NUDT7
  NUDT7 % labeling: 0%
[1]; [4]
  ln(avg k): -15.723
[1]; [3]
  ln(avg k): -15.723
OTUB2
  OTUB2 % labeling: 12%

## CN(CCC#N)C(=O)CCl [PCM-0102712, CN(CCC#N)C(=O)CCl]
NUDT7
  NUDT7 % labeling: 0%
[1]; [4]
  ln(avg k): -15.839
[1]; [3]
  ln(avg k): -15.839
OTUB2
  OTUB2 % labeling: 0%

## CN(CC1CC1)C(=O)CCl [PCM-0102714, CN(CC1CC1)C(=O)CCl]
NUDT7
  NUDT7 % labeling: 0%
[1]; [4]
  ln(avg k): -16.302
[1]; [3]
  ln(avg k): -16.302
OTUB2
  OTUB2 % labeling: 0%

## COc1cccc(C2CCCN2C(=O)CCl)c1 (centres unmarked) [PCM-0102716, COc1cccc(C2CCCN2C(=O)CCl)c1]
NUDT7
  NUDT7 % labeling: 68%
[1]; [4]
  ln(avg k): -15.631
[1]; [3]
  ln(avg k): -15.631
OTUB2
  OTUB2 % labeling: 9%

## O=C(CCl)NCc1ccc(F)cc1C(F)(F)F [PCM-0102733, O=C(CCl)NCc1ccc(F)cc1C(F)(F)F]
NUDT7
  NUDT7 % labeling: 6%
[1]; [4]
  ln(avg k): -16.673
[1]; [3]
  ln(avg k): -16.673
OTUB2
  OTUB2 % labeling: 33%

## COC(=O)C1(NC(=O)CCl)CCCCC1 [PCM-0102734, COC(=O)C1(NC(=O)CCl)CCCCC1]
NUDT7
  NUDT7 % labeling: 0%
[1]; [4]
  ln(avg k): -16.826
[1]; [3]
  ln(avg k): -16.826
OTUB2
  OTUB2 % labeling: 0%

## C#Cc1cccc(NC(=O)CCl)c1 [PCM-0102735, C#Cc1cccc(NC(=O)CCl)c1]
NUDT7
  NUDT7 % labeling: 0%
[1]; [5]
  ln(avg k): -17.384
[1]; [4]
  ln(avg k): -17.384
OTUB2; OTUB2 protein labeling
  OTUB2 % labeling: 9%

## CC(C)(C)c1nnc(NC(=O)CCl)s1 [PCM-0102736, CC(C)(C)c1nnc(NC(=O)CCl)s1]
NUDT7
  NUDT7 % labeling: 0%
[1]; [5]
  ln(avg k): -15.861
[1]; [4]
  ln(avg k): -15.861
OTUB2; OTUB2 protein labeling
  OTUB2 % labeling: 0%

## O=C(CCl)Nc1ccc2c(c1)OC(F)(F)O2 [PCM-0102738, O=C(CCl)Nc1ccc2c(c1)OC(F)(F)O2]
NUDT7
  NUDT7 % labeling: 0%
[1]; [5]
  ln(avg k): -15.810
[1]; [4]
  ln(avg k): -15.810
OTUB2; OTUB2 protein labeling
  OTUB2 % labeling: 41%

## O=C(CCl)N1CCN(Cc2ccsc2)CC1 [PCM-0102739, O=C(CCl)N1CCN(Cc2ccsc2)CC1]
NUDT7
  NUDT7 % labeling: 7%
[1]; [5]
  ln(avg k): -15.640
[1]; [4]
  ln(avg k): -15.640
OTUB2; OTUB2 protein labeling
  OTUB2 % labeling: 0%

## Cc1ccc(S(N)(=O)=O)cc1NC(=O)CCl [PCM-0102744, Cc1ccc(S(N)(=O)=O)cc1NC(=O)CCl]
NUDT7
  NUDT7 % labeling: 0%
[1]; [5]
  ln(avg k): -16.170
[1]; [4]
  ln(avg k): -16.170
OTUB2; OTUB2 protein labeling
  OTUB2 % labeling: 10%

## O=C(CCl)N(C1=CCCCC1)C1CC1 [PCM-0102745, O=C(CCl)N(C1=CCCCC1)C1CC1]
NUDT7
  NUDT7 % labeling: 0%
[1]; [5]
  ln(avg k): -16.466
[1]; [4]
  ln(avg k): -16.466
OTUB2; OTUB2 protein labeling
  OTUB2 % labeling: 0%

## O=C(CCl)Nc1oncc1-c1ccccc1 [PCM-0102746, O=C(CCl)Nc1oncc1-c1ccccc1]
NUDT7
  NUDT7 % labeling: 0%
[1]; [5]
  ln(avg k): -16.489
[1]; [4]
  ln(avg k): -16.489
OTUB2; OTUB2 protein labeling
  OTUB2 % labeling: 64%

## CN(Cc1cccc(F)c1)C(=O)CCl [PCM-0102747, CN(Cc1cccc(F)c1)C(=O)CCl]
NUDT7
  NUDT7 % labeling: 0%
[1]; [5]
  ln(avg k): -16.175
[1]; [4]
  ln(avg k): -16.175
OTUB2; OTUB2 protein labeling
  OTUB2 % labeling: 0%

## CC(C)N1CCC(NC(=O)CCl)CC1 [PCM-0102748, CC(C)N1CCC(NC(=O)CCl)CC1]
NUDT7
  NUDT7 % labeling: 0%
[1]; [5]
  ln(avg k): -15.792
[1]; [4]
  ln(avg k): -15.792
OTUB2; OTUB2 protein labeling
  OTUB2 % labeling: 0%
